Measurements: patent US10709119B2, “Methods of agent delivery into eggs and embryos of egg-producing aquatic animals for drug screening, agent toxicity assay and production of infertile fish” (University of Maryland Baltimore County, priority 2015, dated 2020)

What was measured:
[1] = test system: chorion of zebrafish eggs; test: Uptake of fluorescein-dextran by zebrafish eggs incubated with guanidine-containing compounds (chorion permeability); format: in vivo; conditions: 40 mM compound, 1 μM of 10, 20 or 40 KD fluorescein-dextran, 24 hours, versus untreated eggs
Description: Zebrafish eggs were incubated in solutions that contained 1 μM of 10, 20 or 40 KD fluorescein-dextran with either 0 or 40 mM of arginine, guanidine-HCl or guanidine-thiocyanate for 24 hours.
40 zebrafish eggs were transferred into each well of 48-well plates that contained 300 μl of fresh tank system water. After the allocation of eggs, system water in each well was replaced with 300 μl of water that contained 0 or 40 μM of poly-arginine (9-arginine polymer) and 1 μM of 10 KD fluorescein-dextran. After 4 hours of incubation the eggs were examined using a MZ12 stereomicroscope (Leica, Buffalo Grove, USA), or an Axioplan 2 fluorescence microscope (ZEISS, Thornwood, N.Y., USA). Both microscopes were equipped with a DP70 digital camera (Olympus, Center Valley, Pa., USA).

[2] = test system: rainbow trout embryos / unfertilized eggs; test: Induction of sterility in rainbow trout by immersion of eggs in salmonids' dnd-MO-Vivo; conditions: 10 μM for 48 hours
Description: A dendrimeric octaguanidine with a triazine core also known as Vivo, was conjugated to salmonids' dnd-MO, 5′-[…]-3′ (SEQ ID NO. 3) and used in an immersion containing rainbow trout embryos in water, or unfertilized eggs in ovarian fluid or fertilization diluent. The ability of methods disclosed herein to induce sterility in rainbow trout was tested by administering the following:
I: Salmonids' dnd-MO-Vivo 10 μM for 48 hours, administration to fertilized eggs at the beginning of water activation (within 1 minute)
II: Salmonids' dnd-MO-Vivo 10 μM for 48 hours, administration to unfertilized eggs with the immersion medium of the ovarian fluid. The fertilization was conducted after 48 hours of incubation.
III: Salmonids' dnd-MO-Vivo 10 μM for 48 hours, administration to unfertilized eggs with the fertilization diluent that contains salt, Tris (pH 8.0), Glycine, and 5% of fish serum. The fertilization was conducted after 48 hours of incubation.
IV: Water or immersion medium only without salmonids' dnd-MO-Vivo as controls.

Atlantic salmon eggs = test: Induction of sterility in Atlantic salmon by immersion of eggs in salmonids' dnd-MO or dnd-MO-Vivo; conditions: 10-month-old fish
Description: A salmonids' dnd-MO (see Example 5) or a dendrimeric octaguanidine with a triazine core also known as Vivo, which was conjugated to salmonids' dnd-MO, resulting in salmonids' dnd-MO-Vivo, was used to induce sterility in Atlantic salmon and was tested by administering the following: • I: Salmonids' dnd-MO-Vivo 10 μM for 48 hours, administration to fertilized eggs at the beginning of water activation (within 1 minute). • II: Salmonids' dnd-MO-Vivo 10 μM for 48 hours, administration to unfertilized eggs with the immersion medium of the ovarian fluid. The eggs were fertilized after 48 hours of incubation. • III: Salmonids' dnd-MO-Vivo 10 μM for 48 hours, administration to unfertilized eggs with the immersion medium that contains salt, Tris (pH 8.0), Glycine, and 5% of fish serum. The fertilization was conducted after 48 hours of incubation. • IV: Salmonids' dnd-MO 20 μM for 48 hours, administration to unfertilized eggs with the immersion medium of the ovarian fluid. The eggs were fertilized after 48 hours of incubation. • V: Salmonids' dnd-MO 20 μM for 48 hours, administration to unfertilized eggs with the immersion medium that contains salt, Tris (pH 8.0), Glycine, and 5% of fish serum. The eggs were fertilized after 48 hours of incubation. • VI: Water or immersion medium only without neither salmonids' dnd-MO-Vivo nor dnd-MO as controls.

**Q.** For `N=C(N)NCCC[C@H](N)C(=O)O` [arginine], which “uptake of fluorescein-dextran in the eggs (green fluorescence)” value (“uptake of fluorescein-dextran” below) [1] is on record?
**A.** enhanced the uptake of fluorescein-dextran

**Q.** Which “uptake of fluorescein-dextran” value [1] does the source give for `Cl.N=C(N)N` [guanidine-HCl] here?
**A.** enhanced the uptake of fluorescein-dextran

**Q.** How did the “uptake of fluorescein-dextran” value [1] turn out when `N#CS.N=C(N)N` [guanidine-thiocyanate] was run?
**A.** enhanced the uptake of fluorescein-dextran

**Q.** What does the source list for “salmonids' dnd-MO-Vivo: Vivo (dendrimeric octaguanidine with a triazine core) conjugated to salmonids' dnd-MO, 5′-CTGACTTGAACGCTCCTCCATTATC-3′ (SEQ ID NO. 3) (all phosphorodiamidate morpholino (PMO); Vivo octaguanidine dendrimer conjugated, attachment position not given here)”?
**A.** infertility in rainbow trout [2]: induced infertility; histological examination of gonadal tissue ([2]; treatments I, II and III): under-developed without advanced gonadal structure or germ cells; gonad morphology ([2]; treatments I, II and III (fertilized eggs at water activation; unfertilized eggs in ovarian fluid or fertilization diluent)): developed into a thin filament-like tissue; gonadal development in Atlantic salmon (Atlantic salmon eggs; dnd-MO-Vivo 10 μM for 48 hours): blocked gonadal development; gonad morphology (Atlantic salmon eggs; dnd-MO-Vivo 10 μM for 48 hours, treatments I, II, III): developed into a thin filament-like tissue

**Q.** For “salmonids' dnd-MO: antisense Morpholino oligomer against salmonid dead end, 5′-CTGACTTGAACGCTCCTCCATTATC-3′ (SEQ ID NO. 3) (all phosphorodiamidate morpholino (PMO))”, which gonad morphology (Atlantic salmon eggs; dnd-MO 20 μM for 48 hours, treatments IV, V (unfertilized eggs in ovarian fluid or immersion medium)) is on record?
**A.** developed into a thin filament-like tissue

**Q.** What about the “gonadal development in Atlantic salmon” value (Atlantic salmon eggs; dnd-MO 20 μM for 48 hours, unfertilized eggs) of the same compound?
**A.** blocked gonadal development
